In patent publication US12708622B2, “Methods of treating cancer and inhibiting TYK2 and MEK” (Washington University, priority 2021, dated 2026):
pIC50: −log10 of the molar value.

Tests used:
WU-386 cells = assay: IncuCyte live cell proliferation assay (percent cell confluence); type: cell-based, human; settings: 3 days
Experimental: (§2) To gain further insight into the role of TYK2 in MPNST, the effect of pharmacologic inhibition of TYK2 was examined using IncuCyte Live Cell Imaging experiments for proliferation and cell death assay with YOYO-1 green fluorescent dye.
(§3) MPNST cell lines were plated at 2500 cells/well in 96 well plates in growth media and incubated overnight. […] Cells were imaged every 1-2 hours by IncuCyte Zoom Live-Cell Analysis System (Essen Bioscience, Sartorius, Ann Arbor, MI). Cell proliferation was determined as percent confluence from phase images and was analyzed by IncuCyte image analysis software (Sartorius). […] IC50 values were calculated in GraphPad Prism version 9 (GraphPad Software, San Diego, CA).

[1] = Mouse body weight and health in the MPNST tumor models; set-up: species or system mice; settings: in vivo
Experimental: . […] Mouse body weight, an indicator of health, was measured 2-3 times per week.

WU-386 MPNST xenograft = assay: MPNST xenograft tumor growth in NRG mice; settings: WU-386 in NRG mice; daily oral gavage; single agents
[2] = system: JW23.3, JH-2-002, WU-356 and WU-386 cells; assay: IncuCyte cell confluence IC50 across the MPNST cell line panel; type: cell-based, murine and human; settings: 72 h, 3 days, read-out: IC50 for inhibition of cell confluence, range over cell lines
Experimental: as §3

JH-2-002 cells = assay: IncuCyte live cell proliferation assay (percent cell confluence)
Experimental: as §2
(§4) MPNST cell lines were plated at 2500 cells/well in 96 well plates in growth media and incubated overnight. […] Cells were imaged every 1-2 hours by IncuCyte Zoom Live-Cell Analysis System (Essen Bioscience, Sartorius, Ann Arbor, MI). Cell proliferation was determined as percent confluence from phase images and was analyzed by IncuCyte image analysis software (Sartorius). For cell death assays, 50 nmol/L YOYO-1 green fluorescent dye (Thermo Fisher) was added to treatment medium, and apoptosis was calculated as green objects normalized to the confluency factor and the initial timepoint. IC50 values were calculated in GraphPad Prism version 9 (GraphPad Software, San Diego, CA).

[3] = system: JW23.3 MPNST xenograft tumors; assay: MPNST tumor growth in immunocompetent C57BL6 mice; settings: JW23.3 in immunocompetent mice; daily oral gavage; 1.5 mg/kg deucravacitinib, 30 mg/kg mirdametinib (FIG. 10 legend)
WU-356 cells = assay: IncuCyte live cell proliferation assay (percent cell confluence); type: cell-based, human; settings: 3 days
Experimental: as §2, §3

JW23.3 cells [4] = assay: as above; type: cell-based, murine
Experimental: as §2, §4

2-009 cells [5] = assay: IncuCyte assay with YOYO-1 green fluorescence (apoptosis); type: cell-based; settings: over 3 days
Experimental: (§1) Cell confluence and apoptosis were analyzed by IncuCyte live cell imaging assays. Drug combination synergy was calculated using Synergy Finder software.

JW23.3 cells [6] = assay: IncuCyte cell death assay with YOYO-1 green fluorescent dye (apoptosis); settings: 72 hours
Experimental: as §2, §4

2-009 cells [7] = assay: IncuCyte live cell imaging assay (cell confluence); type: cell-based; settings: over 3 days
Experimental: as §1

JAK1-3 = settings: at clinically relevant doses; cited from earlier work

| SMILES | pIC50 (WU-386 cells; Homo sapiens, 72 h, WU-386 MPNST cell line, IncuCyte, read-out: IC50 for inhibition of cell confluence) | mouse body weight / adverse health effects [1] | tumor size (WU-386 MPNST xenograft) | pIC50 [2] | pIC50 (JH-2-002 cells; Homo sapiens, 72 h, read-out: IC50 for inhibition of cell confluence) | tumor volume relative to vehicle control [3] | pIC50 (WU-356 cells; Homo sapiens, 72 h, WU-356 MPNST cell line, IncuCyte, read-out: IC50 for inhibition of cell confluence) | percent cell confluence (JW23.3 cells [4]; JW23.3 cells, 72 hours) | apoptosis (2-009 cells [5]) | apoptosis (JW23.3 cells [6]) | cell confluence (2-009 cells [7]) | block of JAK1-3 (JAK1-3) | proliferation (cell confluence) (WU-386 cells; WU-386 cells) | pIC50 (JW23.3 cells [4]; Mus musculus, 72 h, read-out: IC50 for inhibition of cell confluence) | percent cell confluence / proliferation (JH-2-002 cells; JH-2-002 cells, 72 hours) | proliferation (cell confluence) (WU-356 cells; WU-356 cells) |
| --- | --- | --- | --- | --- | --- | --- | --- | --- | --- | --- | --- | --- | --- | --- | --- | --- |
| O=C(NOC[C@H](O)CO)c1ccc(F)c(F)c1Nc1ccc(I)cc1F [mirdametinib] | 5.97 | did not significantly decrease mouse body weight | non-significant trend toward decreased tumor size | 5.88 to 6.66 | 6.66 | nearly half the volume of vehicle control | 5.88 | – | – | – | – | – | – | – | – | – |
| N#Cc1cc(F)c(C(=O)Nc2ccnc(NC(=O)C3C[C@H]3F)c2)c(Cl)c1 (stereo partly drawn) [TC-JL-37] | – | – | – | – | – | – | – | decreased cell confluence | increased apoptosis | increased apoptosis | decreased cell confluence | – | – | – | – | – |
| [2H]C([2H])([2H])NC(=O)c1nnc(NC(=O)C2CC2)cc1Nc1cccc(-c2ncn(C)n2)c1OC [deucravacitinib] | – | – | non-significant trend toward decreased tumor size | – | – | nearly half the volume of vehicle control | – | – | – | – | – | does not block JAK1-3 at clinically relevant doses | inhibited proliferation | 5.17 | inhibited proliferation | inhibited proliferation |
